Experimental data from US10745352B2, “Dual function molecules for histone deacetylase inhibition and ataxia telangiectasia mutated activation and methods of use thereof” (Shuttle Pharmaceuticals, Inc., priority 2015, dated 2020).

How the values were obtained:
ATM = ATM activation: phospho-ATM (S1981) ELISA on the nuclear fraction of MCF7 cells; format: cell-based, Human; settings: 1 μM, time course of 6 hours
Procedure: Several assays were utilized to determine the ability of the compounds of the invention to activate ATM over a period of time. […] The fold change in phospho-ATM was measured over a period of time. Accordingly, the increase in phospho-ATM indicates activation of ATM by the compounds of the invention.
In certain examples, the activity of the compounds of the invention was compared to additional modulators of ATM, such as […] (a specific ATM inhibitor); dimethylsulfoxide (DMSO) (a solvent); 3,3′-diindolylmethane (DIM) (an ATM activator); and irradiation (irradiation may result in the generation of phospho-ATM due to DNA damage). DIM was not used as a comparative compound in Example 5.
Materials: MCF7 Cells; Complete RPMI media: RPMI, 10% Fetal Bovine Serum (FBS), 5% L-glutamine, 5% Pen/Strep; R&D Systems Human P-ATM (S1981) DuoSet IC ELISA Assay Kit; Plate sealers; Normal mouse serum (heat inactivated 56 C for 30 min); 96-well ELISA microtiter plate; 450 nm Plate Reader; 60 mm dishes; Disposable pipettes; Pipet-aid; Pipette tips; Micro-pipetter; Cell scraper; Distilled water; Pierce NE-PER Nuclear and Cytoplasmic Extraction Reagent; Pierce Protease and Phosphotase Inhibitor Mini Tablets; KU-55933; DIM (not used in Example 5); Dimethyl sulfoxide (DMSO); Phosphate buffered saline (PBS); and Sterile micro-tubes and conical tubes; Hemocytometer; Microscope; Micro-centrifuge.
MCF7 Cells were grown in Complete RPMI media and 10^6 cells were seeded into 60 mm dishes. Dishes were then divided into duplicate treatments the following day. Control samples were treated with 3 ml RPMI media for 1 hr. Vehicle samples were treated with 3 ml RPMI media plus 0.1% DMSO for 1 hr. Negative control samples were treated with 10 μM KU-55933 in 3 ml RPMI media plus 0.1% DMSO for 1 Hr. Positive control samples were treated with 0.5 μM DIM in 3 ml RPMI media plus 0.1% DMSO for 30 min. Test Samples were treated with 1 μM of the test compounds (e.g. N-(6-(hydroxyamino)-6-oxohexyl)-1H-indole-2-carboxamide in Example 5) in 3 ml RPMI media plus 0.1% DMSO for 30 min; 1 hr; 2 hrs; 4 hrs; and 6 hrs. At their designated time, samples were harvested on ice using a cell scraper and two washes of 1 ml PBS and kept as a cell pellet on dry ice until all were collected. After all samples were collected they were thawed on ice and separated into cytosolic and nuclear fractions using the Pierce NE-PER Nuclear and Cytoplasmic Extraction Reagent kit with added Pierce protease and phosphotase inhibitor tablet.
After recovery of the separate fractions, the process further included washing cells by suspending the cell pellet with PBS. 1-10×10^6 cells were transferred to a 1.5 mL microcentrifuge tube and a pellet was formed by centrifugation at 500×g for 2-3 minutes. […]

[1] = system: HPV+ CasKi cells vs normal epithelial cells (RWPE1 cells); test: MTT cytotoxicity assay, normal epithelial cells versus HPV+ cervical cancer cells; format: cell-based, human
Procedure: SP-1-161 was tested in a MTT cytotoxicity assay against normal epithelial cells and human papilloma virus positive (HPV+) cancerous (CasKi) cervical cells. […] This supports the role for the compounds of the invention (e.g., SP-1-161) as treatments of HPV+ cancers and tumors.

Cc1c(C(=O)NCCCCCC(=O)NO)[nH]c2ccccc12 [SP-1-161, N-(6-(hydroxyamino)-6-oxohexyl)-3-methyl-1H-indole-2-carboxamide]
ATM activation (level of ATM phosphorylation, phospho-ATM) (ATM): exemplary ATM activation activity
IC50 for HPV+ CasKi cells, times lower than that for normal epithelial cells (RWPE1 cells) [1]: 29 times
